Experiment: Radioactivity excretion (mass balance) after a single oral dose of ^3H-ADP
Type: in vivo
Settings: single oral 5 mg/kg b. w., within 14 d
Procedure: Animals (4 swine, 6 broilers, 6 carp, and 3 male and 3 female rats) were housed individually in clean, suspended wire-mesh metabolism cages, designed to separate the urine from the feces (carp were raised in individual aquaria). Each animal was weighed and assigned with a permanent identification number. A single dose of ^3 H-ADP (5 mg/kg b. w., 0.1 Ci/g) was administered via the oral gavage. Excreta were collected on ice at the pre-administration, in the period of 6, 12, and 24 h on day 1 d, and afterwards, intermittently in the period of 24 h up to 14 d. The piscine excreta were collected by changing and collecting raised water. The total volume or weight of each sample was measured and homogenized. The total radioactivity levels were determined through LSC for the recovery calculations. After the preparation, the samples were analyzed through LC/MS-IT-TOF with v. […] The pretreatment samples were used as controls to determine the background radioactivity or the endogenous nondrug-related ions observed within respective matrices or their extracts.
Measurements of the total radioactivity in each sample were conducted by Packard Tri-Carb 2900 TR liquid scintillation counter (PerkinElmer Life and Analytical Sciences). […] The actual radioactivity of each sample was calculated by subtracting the background value form the mean radioactivity in two blank samples. […]

## COc1cc(Cc2cnc(N)nc2N)cc(OC)c1N(C)C [A0, 2,4-Diamino-5-[4-(dimethylamino)-3,5-dimethoxybenzyl] pyrimidine]
rats
  urine excretion of radioactivity: 78 % of the administered dose
swine
  urine excretion of radioactivity: 78 % of the administered dose

From publication PMC4738305, “Metabolism and Disposition of Aditoprim in Swine, Broilers, Carp and Rats” (Scientific Reports, 2016)
